Test results from patent US9067943B2, “[1,2,3]triazolo[4,5-D]pyrimidine derivatives” (priority 2011, dated 2015).

How the values were obtained:
[1] = target: T1, human CB1 receptors (Homo sapiens, UniProt P21554); assay: cAMP assay; type: cell-based
T1 construct: expressed in transfected cells; host or cells: CHO cells
Method: (§1) CHO cells expressing human CB1 or CB2 receptors are seeded 17-24 hours prior to the experiment 50.000 cells per well in a black 96 well plate with flat clear bottom (Corning Costar #3904) in DMEM (Invitrogen No. 31331), 1×HT supplement, with 10% fetal calf serum and incubated at 5% CO2 and 37° C. in a humidified incubator. The growth medium was exchanged with Krebs Ringer Bicarbonate buffer with 1 mM IBMX and incubated at 30° C. for 30 min. Compounds were added to a final assay volume of 100 μl and incubated for 30 min at 30° C. Using the cAMP-Nano-TRF detection kit the assay (Roche Diagnostics) was stopped by the addition of 50 μl lysis reagent (Tris, NaCl, 1.5% Triton X100, 2.5% NP40, 10% NaN3) and 50 μl detection solutions (20 μM mAb Alexa700-cAMP 1:1, and 48 μM Ruthenium-2-AHA-cAMP) and shaken for 2 h at room temperature. The time-resolved energy transfer is measured by a TRF reader (Evotec Technologies GmbH), equipped with a ND:YAG laser as excitation source. The plate is measured twice with the excitation at 355 nm and at the emission with a delay of 100 ns and a gate of 100 ns, total exposure time 10 s at 730 (bandwidth 30 nm) or 645 nm (bandwidth 75 nm), respectively. The FRET signal is calculated as follows: FRET=T730-Alexa730-P(T645-B645) with P=Ru730-B730/Ru645-B645, where T730 is the test well measured at 730 nM, T645 is the test well measured at 645 nm, B730 and B645 are the buffer controls at 730 nm and 645 nm, respectively. cAMP content is determined from the function of a standard curve spanning from 10 μM to 0.1 nM cAMP.
(§2) EC50 values were determined using Activity Base analysis (ID Business Solution, Limited). The EC50 values for a wide range of cannabinoid agonists generated from this assay were in agreement with the values published in the scientific literature.

[2] = target: T2, human CB2 receptors (Homo sapiens, UniProt P34972); assay: cAMP assay; type: cell-based
T2 construct: expressed in transfected cells; host or cells: CHO cells
T2 sequence (P34972 whole entry): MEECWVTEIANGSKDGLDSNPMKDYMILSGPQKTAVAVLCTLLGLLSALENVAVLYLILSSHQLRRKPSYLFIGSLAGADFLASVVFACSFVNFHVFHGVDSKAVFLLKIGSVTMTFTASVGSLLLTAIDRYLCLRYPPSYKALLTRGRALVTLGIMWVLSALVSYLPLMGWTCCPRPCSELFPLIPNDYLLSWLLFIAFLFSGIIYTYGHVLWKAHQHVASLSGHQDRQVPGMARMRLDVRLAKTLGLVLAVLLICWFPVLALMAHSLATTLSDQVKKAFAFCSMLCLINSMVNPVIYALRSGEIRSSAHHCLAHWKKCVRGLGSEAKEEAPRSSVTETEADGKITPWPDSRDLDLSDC
Method: as §1, §2

T1 sequence (P21554 whole entry): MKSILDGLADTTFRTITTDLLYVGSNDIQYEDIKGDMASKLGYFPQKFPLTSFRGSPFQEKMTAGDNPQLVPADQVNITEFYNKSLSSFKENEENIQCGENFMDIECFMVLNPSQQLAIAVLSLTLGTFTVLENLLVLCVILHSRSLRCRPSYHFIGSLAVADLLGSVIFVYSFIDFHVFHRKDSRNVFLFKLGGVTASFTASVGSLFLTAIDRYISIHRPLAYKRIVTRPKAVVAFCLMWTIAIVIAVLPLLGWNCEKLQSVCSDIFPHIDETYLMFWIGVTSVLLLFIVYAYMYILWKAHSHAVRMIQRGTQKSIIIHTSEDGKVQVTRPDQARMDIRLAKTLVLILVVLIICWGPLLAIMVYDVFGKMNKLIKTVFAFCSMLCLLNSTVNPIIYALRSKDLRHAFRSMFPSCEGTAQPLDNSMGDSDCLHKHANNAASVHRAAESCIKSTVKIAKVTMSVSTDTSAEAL

Structure (SMILES) | EC50 [1] | EC50 [2]
CC(C)(C)c1nc(N2CCC(F)(F)C2)c2nn(CC(=O)c3cccc(Cl)c3)nc2n1 [Example 52, 2-[5-tert-Butyl-7-(3,3-difluoro-pyrrolidin-1-yl)-[1,2,3]triazolo[4,5-d]pyrimidin-2-yl]-1-(3-chloro-phenyl)-ethanone] | > 10000 nM | 13 nM
CC(C)(C)c1nc(N2CCC(F)(F)C2)c2nn(CC(=O)c3ccc(Cl)cc3)nc2n1 [Example 53, 2-[5-tert-Butyl-7-(3,3-difluoro-pyrrolidin-1-yl)-[1,2,3]triazolo[4,5-d]pyrimidin-2-yl]-1-(4-chloro-phenyl)-ethanone] | > 10000 nM | 7.2 nM
CC(C)(C)c1nc(N2CCC(F)(F)C2)c2nn(CC(=O)c3cccnc3)nc2n1 [Example 54, 2-[5-tert-Butyl-7-(3,3-difluoro-pyrrolidin-1-yl)-[1,2,3]triazolo[4,5-d]pyrimidin-2-yl]-1-pyridin-3-yl-ethanone] | > 10000 nM | 6.5 nM
CC(C)(C)c1nc(N2CCC(F)(F)C2)c2nn(Cc3c(Cl)ccc(Cl)c3Cl)nc2n1 [Example 55, 5-tert-Butyl-7-(3,3-difluoro-pyrrolidin-1-yl)-2-(2,3,6-trichloro-benzyl)-2H-[1,2,3]triazolo[4,5-d]pyrimidine] | > 10000 nM | 8.7 nM
CC(C)(C)c1nc(N2CCC(F)(F)C2)c2nn(Cc3cccc(C(F)(F)F)c3Cl)nc2n1 [Example 56, 5-tert-Butyl-2-(2-chloro-3-trifluoromethyl-benzyl)-7-(3,3-difluoro-pyrrolidin-1-yl)-2H-[1,2,3]triazolo[4,5-d]pyrimidine] | > 10000 nM | 12.6 nM
COc1ccc(F)c(Cn2nc3nc(C(C)(C)C)nc(N4CCC(F)(F)C4)c3n2)c1Cl [Example 57, 5-tert-Butyl-2-(2-chloro-6-fluoro-3-methoxy-benzyl)-7-(3,3-difluoro-pyrrolidin-1-yl)-2H-[1,2,3]triazolo[4,5-d]pyrimidine] | > 10000 nM | 3.6 nM
CC(C)(C)c1nc(N2CCC(F)(F)C2)c2nn(CCc3cccnc3)nc2n1 [Example 58, 5-tert-Butyl-7-(3,3-difluoro-pyrrolidin-1-yl)-2-(2-pyridin-3-yl-ethyl)-2H-[1,2,3]triazolo[4,5-d]pyrimidine] | > 10000 nM | 4.3 nM
CC(C)(C)c1nc(N2CCC(F)(F)C2)c2nn(CCc3ccncc3)nc2n1 [Example 59, 5-tert-Butyl-7-(3,3-difluoro-pyrrolidin-1-yl)-2-(2-pyridin-4-yl-ethyl)-2H-[1,2,3]triazolo[4,5-d]pyrimidine] | > 10000 nM | 3.5 nM
CC(C)(C)c1nc(N2CCC(F)(F)C2)c2nn(Cc3c(C(F)(F)F)ccc(Cl)c3Cl)nc2n1 [Example 60, 5-tert-Butyl-2-(2,3-dichloro-6-trifluoromethyl-benzyl)-7-(3,3-difluoro-pyrrolidin-1-yl)-2H-[1,2,3]triazolo[4,5-d]pyrimidine] | > 10000 nM | 12.7 nM
CC(C)(C)c1nc(N2CCC(F)(F)C2)c2nn(Cc3nccc(Cl)c3Cl)nc2n1 [Example 61, 5-tert-Butyl-2-(3,4-dichloro-pyridin-2-ylmethyl)-7-(3,3-difluoro-pyrrolidin-1-yl)-2H-[1,2,3]triazolo[4,5-d]pyrimidine] | > 10000 nM | 2.6 nM
CC(C)(C)c1nc(N2CCC(F)(F)C2)c2nn(C3CS(=O)(=O)C3)nc2n1 [Example 62, 5-tert-Butyl-7-(3,3-difluoro-pyrrolidin-1-yl)-2-(1,1-dioxo-1λ6-thietan-3-yl)-2H-[1,2,3]triazolo[4,5-d]pyrimidine] | > 10000 nM | 5.8 nM
CC(C)(C)c1nc(N2CCC(F)(F)C2)c2nn(C3CCS(=O)(=O)C3)nc2n1 (stereo not drawn) [Example 63, 5-tert-Butyl-7-(3,3-difluoro-pyrrolidin-1-yl)-2-(1,1-dioxo-tetrahydro-1λ6-thiophen-3-yl)-2H-[1,2,3]triazolo[4,5-d]pyrimidine] | > 10000 nM | 4 nM
CC(C)(C)c1nc(N2CCC(F)(F)C2)c2nn(CC(=O)c3ccccn3)nc2n1 [Example 64, 2-[5-tert-Butyl-7-(3,3-difluoro-pyrrolidin-1-yl)-[1,2,3]triazolo[4,5-d]pyrimidin-2-yl]-1-pyridin-2-yl-ethanone] | > 10000 nM | 2.4 nM
Cc1nnc(Cn2nc3nc(C(C)(C)C)nc(N4CCC(F)(F)C4)c3n2)o1 [Example 65, 5-tert-Butyl-7-(3,3-difluoro-pyrrolidin-1-yl)-2-(5-methyl-[1,3,4]oxadiazol-2-ylmethyl)-2H-[1,2,3]triazolo[4,5-d]pyrimidine] | > 10000 nM | 18.6 nM
CC(C)(C)c1nc(N2CCC(F)(F)C2)c2nn(Cc3ccncc3Cl)nc2n1 [Example 66, 5-tert-Butyl-2-(3-chloro-pyridin-4-ylmethyl)-7-(3,3-difluoro-pyrrolidin-1-yl)-2H-[1,2,3]triazolo[4,5-d]pyrimidine] | 234 nM | 0.4 nM
Cc1nc(Cn2nc3nc(C(C)(C)C)nc(N4CCC(F)(F)C4)c3n2)no1 [Example 67, 5-tert-Butyl-7-(3,3-difluoro-pyrrolidin-1-yl)-2-(5-methyl-[1,2,4]oxadiazol-3-ylmethyl)-2H-[1,2,3]triazolo[4,5-d]pyrimidine] | 1630 nM | 1.3 nM
Cn1nnnc1Cn1nc2nc(C(C)(C)C)nc(N3CCC(F)(F)C3)c2n1 [Example 68, 5-tert-Butyl-7-(3,3-difluoro-pyrrolidin-1-yl)-2-(1-methyl-1H-tetrazol-5-ylmethyl)-2H-[1,2,3]triazolo[4,5-d]pyrimidine] | > 10000 nM | 2.3 nM
Cn1ncnc1Cn1nc2nc(C(C)(C)C)nc(N3CCC(F)(F)C3)c2n1 [Example 69, 5-tert-Butyl-7-(3,3-difluoro-pyrrolidin-1-yl)-2-(2-methyl-2H-[1,2,4]triazol-3-ylmethyl)-2H-[1,2,3]triazolo[4,5-d]pyrimidine] | > 10000 nM | 1.1 nM
Cn1c(Cn2nc3nc(C(C)(C)C)nc(N4CCC(F)(F)C4)c3n2)nnc1S(C)(=O)=O [Example 70, 5-tert-Butyl-7-(3,3-difluoro-pyrrolidin-1-yl)-2-(5-methanesulfonyl-4-methyl-4H-[1,2,4]triazol-3-ylmethyl)-2H-[1,2,3]triazolo[4,5-d]pyrimidine] | > 10000 nM | 33.6 nM
CN(C)c1c(Cl)cncc1Cn1nc2nc(C(C)(C)C)nc(N3CCC(F)(F)C3)c2n1 [Example 71, {3-[5-tert-Butyl-7-(3,3-difluoro-pyrrolidin-1-yl)-[1,2,3]triazolo[4,5-d]pyrimidin-2-ylmethyl]-5-chloro-pyridin-4-yl}-dimethyl-amine] | 105 nM | 1.4 nM
CC(C)(C)c1nc(N2CCC(F)(F)C2)c2nn(Cc3c[nH]nc3C(F)(F)F)nc2n1 [Example 72, 5-tert-Butyl-7-(3,3-difluoro-pyrrolidin-1-yl)-2-(3-trifluoromethyl-1H-pyrazol-4-ylmethyl)-2H-[1,2,3]triazolo[4,5-d]pyrimidine] | > 10000 nM | 11.8 nM
Cc1nonc1Cn1nc2nc(C(C)(C)C)nc(N3CC[C@H](O)C3)c2n1 [Example 73, (S)-1-[5-tert-Butyl-2-(4-methyl-furazan-3-ylmethyl)-2H-[1,2,3]triazolo[4,5-d]pyrimidin-7-yl]-pyrrolidin-3-ol] | > 10000 nM | 7.1 nM
Cc1noc(Cn2nc3nc(C(C)(C)C)nc(N4CC[C@H](O)C4)c3n2)n1 [Example 74, (S)-1-[5-tert-Butyl-2-(3-methyl-[1,2,4]oxadiazol-5-ylmethyl)-2H-[1,2,3]triazolo[4,5-d]pyrimidin-7-yl]-pyrrolidin-3-ol] | > 10000 nM | 61.3 nM
CC(C)(C)c1nc(N2CC[C@H](O)C2)c2nn(Cc3ncccc3Cl)nc2n1 [Example 75, (S)-1-[5-tert-Butyl-2-(3-chloro-pyridin-2-ylmethyl)-2H-[1,2,3]triazolo[4,5-d]pyrimidin-7-yl]-pyrrolidin-3-ol] | > 10000 nM | 4.6 nM
CC(C)(C)c1nc(N2CC[C@H](O)C2)c2nn(Cc3nc(Cl)ccc3Cl)nc2n1 [Example 76, (S)-1-[5-tert-Butyl-2-(3,6-dichloro-pyridin-2-ylmethyl)-2H-[1,2,3]triazolo[4,5-d]pyrimidin-7-yl]-pyrrolidin-3-ol] | > 10000 nM | 5.9 nM
CC(C)(C)c1nc(N2CC[C@H](O)C2)c2nn(Cc3cccnc3Cl)nc2n1 [Example 77, (S)-1-[5-tert-Butyl-2-(2-chloro-pyridin-3-ylmethyl)-2H-[1,2,3]triazolo[4,5-d]pyrimidin-7-yl]-pyrrolidin-3-ol] | > 10000 nM | 15.5 nM
CC(C)(C)c1nc(N2CC[C@H](O)C2)c2nn(Cc3cccc(Cl)c3Cl)nc2n1 [Example 78, (S)-1-[5-tert-Butyl-2-(2,3-dichloro-benzyl)-2H-[1,2,3]triazolo[4,5-d]pyrimidin-7-yl]-pyrrolidin-3-ol] | > 10000 nM | 6 nM
